Data reported in ChEMBL document CHEMBL2311456, “Synthesis and in vitro evaluation of potential anticancer activity of mono- and bis-1,2,3-triazole derivatives of bis-alkynes” (Eur J Med Chem, 2013).

Test system: B16
Test: Ratio of propargyl amine IC50 to compound IC50 for mouse B16 cells after 48 hrs by MTT assay
Format: functional
Details: not given

In the case of `C#CC(=O)Nc1cccc(C#C)c1`, the “Ratio IC50” value is reported as 127.

Test system: B16
Test: Cytotoxicity against mouse B16 cells after 48 hrs by MTT assay
Format: functional, cell-based
Details: B16, 48 h

Going from `C#CCNC(=O)c1cn(CCOC(C)=O)nn1` to `C#Cc1cccc(NC(=O)c2cn(CCOC(C)=O)nn2)c1`, the IC50 falls from > 100 µM to 25.1 µM. The second is the more potent here.

Going from `O=C(Nc1ccc(-c2cn(Cc3ccccc3)nn2)cc1)c1cn(Cc2ccccc2)nn1` to `O=C(Nc1cccc(-c2cn(Cc3ccccc3)nn2)c1)c1cn(Cc2ccccc2)nn1`, the IC50 falls from > 100 µM to 4.5 µM.

First: CCOC(=O)Cn1cc(-c2ccc(NC(=O)c3cn(Cc4ccccc4)nn3)cc2)nn1
Second: CCOC(=O)Cn1cc(-c2cccc(NC(=O)c3cn(Cc4ccccc4)nn3)c2)nn1
The IC50 of the first is 1.7-fold higher: 36.3 µM for the first, 21 µM for the second.

First: CC(=O)OCCn1cc(-c2ccc(NC(=O)c3cn(Cc4ccccc4)nn3)cc2)nn1
Second: CC(=O)OCCn1cc(C(=O)Nc2ccc(-c3cn(Cc4ccccc4)nn3)cc2)nn1
The IC50 of the first is lower: 13.2 µM for the first, > 100 µM for the second.

`CCOC(=O)Cn1cc(C(=O)Nc2ccc(-c3cn(CCOC(C)=O)nn3)cc2)nn1` and `CCOC(=O)Cn1cc(-c2ccc(NC(=O)c3cn(CCOC(C)=O)nn3)cc2)nn1` cannot be ordered by IC50: > 100 µM for the first, > 100 µM for the second.

`CC(=O)OCCn1cc(C(=O)Nc2ccc(-c3cn(CCOC(C)=O)nn3)cc2)nn1` and `CC(=O)OCCn1cc(C(=O)Nc2cccc(-c3cn(CCOC(C)=O)nn3)c2)nn1` cannot be ordered by IC50: > 100 µM for the first, > 100 µM for the second.

Compared with `O=C(Nc1ccccc1)c1cn(Cc2ccccc2)nn1`, `C#Cc1cccc(NC(=O)c2cn(Cc3ccccc3)nn2)c1` is 6.4-fold lower in IC50: 93 µM for the first, 14.5 µM for the second. The second is the more potent here.

`CCOC(=O)Cn1cc(C(=O)Nc2ccccc2)nn1` and `CC(=O)OCCn1cc(C(=O)Nc2ccccc2)nn1` cannot be ordered by IC50: > 100 µM for the first, > 100 µM for the second.

Compared with `C#Cc1cccc(NC(=O)c2cn(CC(=O)OCC)nn2)c1`, `C#Cc1ccc(NC(=O)c2cn(CC(=O)OCC)nn2)cc1` is higher in IC50: 91 µM for the first, > 100 µM for the second.

Going from `C#Cc1ccc(NC(=O)c2cn(Cc3ccccc3)nn2)cc1` to `C#CCNC(=O)c1cn(Cc2ccccc2)nn1`, the IC50 falls from > 100 µM to 65 µM.

Compared with `C#Cc1ccc(NC(=O)c2cn(CCOC(C)=O)nn2)cc1`, `CC(=O)OCCn1cc(-c2cccc(NC(=O)c3cn(Cc4ccccc4)nn3)c2)nn1` is 3.1-fold lower in IC50: 79 µM for the first, 25.1 µM for the second. The second is the more potent here.

First: O=C(NCc1cn(Cc2ccccc2)nn1)c1cn(Cc2ccccc2)nn1
Second: O=C(Cn1cc(C(=O)NCc2cn(Cc3ccccc3)nn2)nn1)OCc1ccccc1
The IC50 of the first is 75-fold lower: 0.3 µM for the first, 22.4 µM for the second.

Going from `CCOC(=O)Cn1cc(CNC(=O)c2cn(Cc3ccccc3)nn2)nn1` to `CCOC(=O)Cn1cc(CNC(=O)c2cn(CC(=O)OCc3ccccc3)nn2)nn1`, the IC50 rises from 35 µM to > 100 µM. The first is the more potent here.

First: CC(=O)OCCn1cc(CNC(=O)c2cn(Cc3ccccc3)nn2)nn1
Second: CC(=O)OCCn1cc(C(=O)NCc2cn(Cc3ccccc3)nn2)nn1
The IC50 of the first is lower: 28 µM for the first, > 100 µM for the second.

`CC(=O)OCCn1cc(CNC(=O)c2cn(CC(=O)OCc3ccccc3)nn2)nn1` and `CCOC(=O)Cn1cc(CNC(=O)c2cn(CCOC(C)=O)nn2)nn1` cannot be ordered by IC50: > 100 µM for the first, > 100 µM for the second.

`CC(=O)OCCn1cc(CNC(=O)c2cn(CCOC(C)=O)nn2)nn1` and `CCOC(=O)Cn1cc(C(=O)Nc2cccc(-c3cn(CCOC(C)=O)nn3)c2)nn1` cannot be ordered by IC50: > 100 µM for the first, > 100 µM for the second.

Going from `CCOC(=O)Cn1cc(C(=O)Nc2cccc(-c3cn(Cc4ccccc4)nn3)c2)nn1` to `CC(=O)OCCn1cc(C(=O)Nc2cccc(-c3cn(Cc4ccccc4)nn3)c2)nn1`, the IC50 rises from 20.4 µM to > 100 µM. The first is the more potent here.

Going from `CCOC(=O)Cn1cc(C(=O)Nc2cccc(-c3cn(CC(=O)OCC)nn3)c2)nn1` to `CCOC(=O)Cn1cc(-c2cccc(NC(=O)c3cn(CCOC(C)=O)nn3)c2)nn1`, the IC50 falls from > 100 µM to 63 µM. The second is the more potent here.

Going from `C#CCNC(=O)C#C` to `C#CC(=O)Nc1cccc(C#C)c1`, the IC50 falls from 38 µM to 0.3 µM (130-fold). The second is the more potent here.

Going from `C#CC(=O)Nc1ccc(C#C)cc1` to `C#CCNC(=O)c1cn(CC(=O)OCc2ccccc2)nn1`, the IC50 rises from 6.3 µM to > 100 µM. The first is the more potent here.
